58 compounds from patent US7803821B2, “Fungicide N-cycloalkyl-carboxamide, thiocarboxamide and N-substituted-carboximidamide derivatives” (Bayer Cropscience SA, priority 2006, dated 2010) can be followed below.

The term logP denotes the decadic logarithm of the partition coefficient of the neutral form, usually between octanol and water. By chromatographic logP is commonly meant a lipophilicity value derived from retention on a column. Read a low chromatographic logP as a more hydrophilic compound.

The structures appear in SMILES notation.

A short description of the series: log P by HPLC on reversed-phase column (C18), EEC Directive 79/831 Annex V.A8. The class given is physicochemical. To be noted: C18, 40° C., 0.1% aqueous formic acid and acetonitrile, gradient 10% to 90% acetonitrile. The protocol: Temperature: 40° C.; Mobile phases: 0.1% aqueous formic acid and acetonitrile; linear gradient from 10% acetonitrile to 90% acetonitrile.

As to `Cc1nn(C)cc1C(=O)N(C1CC1)C(C)c1cccnc1Cl` (racemic) [Example 78], the logP is reported as 1.58.

`CC(c1cccnc1Cl)N(C(=O)c1cn(C)nc1C(F)F)C1CC1` (racemic) [Example 81] gave a log partition coefficient (logP) of 1.88.

`Cc1cc(C(=O)N(C2CC2)C(C)c2cccnc2Cl)no1` (racemic) [Example 83]: the logP came out at 2.07.

Take `Cc1cc(C(=O)N(C2CC2)C(C)c2cccnc2Cl)nn1C` (racemic) [Example 84]: the logP is 1.78.

As for `CC(c1cnc(Cl)c(Cl)c1)N(C(=O)c1cn(C)nc1C(F)(F)F)C1CC1` (stereo not shown) [Example 1], the logP worked out at 3.14.

The compound `CC(c1cnc(Cl)c(Cl)c1)N(C(=O)c1cn(C)cc1C(F)(F)F)C1CC1` (stereo not shown) [Example 2] returned a logP of 3.34.

As to `Cc1cc(C(=O)N(C2CC2)C(C)c2cnc(Cl)c(Cl)c2)c(C)o1` (stereo not shown) [Example 3], the logP is listed as 3.7.

`Cc1nn(C)c(F)c1C(=O)N(C1CC1)C(C)c1cnc(Cl)c(Cl)c1` (stereo not shown) [Example 4] gave a logP of 2.56.

As for `CC(c1cnc(Cl)c(Cl)c1)N(C(=O)c1cn(C)nc1C(F)F)C1CC1` (stereo not shown) [Example 5], the lipophilicity (logP) is on record as 2.67.

With `COc1nn(C)cc1C(=O)N(C1CC1)C(C)c1cnc(Cl)c(Cl)c1` (stereo not shown) [Example 6], the logP is 2.29.

For the compound `Cc1ccc(CN(C(=O)c2c(C)nn(C)c2F)C2CC2)cn1` [Example 7], the log partition coefficient (logP) stood at 0.43.

`Cc1ccc(CN(C(=O)c2cn(C)nc2C(F)F)C2CC2)cn1` [Example 8] returned a logP of 0.52.

Compound `Cc1nn(C)c(F)c1C(=O)N(Cc1cnc(Cl)cc1Cl)C1CC1` [Example 9] returned a logP of 2.28.

`Cn1cc(C(=O)N(Cc2cnc(Cl)cc2Cl)C2CC2)c(C(F)F)n1` [Example 10] displayed a log partition coefficient (logP) of 2.46.

As to `Cn1cc(C(=O)N(Cc2ccncc2)C2CC2)c(C(F)(F)F)n1` [Example 11], the logP is recorded as 0.59.

`Cc1nc(C(F)(F)F)c(C(=O)N(Cc2ccncc2)C2CC2)s1` [Example 13] gave a log partition coefficient (logP) of 0.93.

`Cc1nc(C(F)F)c(C(=O)N(Cc2ccncc2)C2CC2)s1` [Example 14] showed a logP of 0.58.

Turning to `Cn1nc(C(=O)N(Cc2ccncc2)C2CC2)c(C(F)(F)F)n1` [Example 15], the logP was 1.03.

`Cn1cc(C(=O)N(Cc2ccncc2)C2CC2)c(C(F)(F)F)c1` [Example 16]: the logP was found to be 0.99.

In turn, `CCC(c1ccncc1)N(C(=O)c1c(C)nn(C)c1F)C1CC1` (stereo not shown) [Example 17, N-cyclopropyl-N-[1-pyridin-4-yl-propyl]-5-fluoro-1,3-dimethyl-1H-pyrazole-4-carboxamide] displayed a chromatographic logP (reversed-phase HPLC column (C18)) of 0.92.

Compound `CCC(c1ccncc1)N(C(=O)c1cn(C)nc1C(F)F)C1CC1` (stereo not shown) [Example 18] returned a logP of 1.79.

The compound `Cc1nc(C(F)F)c(C(=O)N(C2CC2)C(C)c2ncc(Cl)cc2Cl)s1` (stereo not shown) [Example 20] returned a lipophilicity (logP) of 3.64.

`Cn1cc(C(=O)N(Cc2ncc(Cl)cc2Cl)C2CC2)c(C(F)(F)F)n1` [Example 21]: the logP is 3.21.

`CCOc1nn(C)cc1C(=O)N(Cc1ncc(Cl)cc1Cl)C1CC1` [Example 22] displayed a logP of 2.54.

Take `Cc1nc(C(F)(F)F)c(C(=O)N(Cc2ncc(Cl)cc2Cl)C2CC2)s1` [Example 23]: the log partition coefficient (logP) is on record as 3.76.

`Cc1nc(C(F)F)c(C(=O)N(Cc2ncc(Cl)cc2Cl)C2CC2)s1` [Example 24] yielded a logP of 3.42.

Turning to `O=C(c1sccc1I)N(Cc1ncc(Cl)cc1Cl)C1CC1` [Example 26], the lipophilicity (logP) is 4.16.

`Cc1nn(C)cc1C(=O)N(C1CC1)C(C)c1ncc(Cl)cc1Cl` (stereo not shown) [Example 27]: the log partition coefficient (logP) is on record as 2.4.

Take `Cc1nn(C)c(F)c1C(=O)N(C1CC1)C(C)c1ncc(Cl)cc1Cl` (stereo not shown) [Example 28]: the logP was 2.77.

Take `Cc1nn(C)c(F)c1C(=O)N(Cc1ncc(Cl)cc1Cl)C1CC1` [Example 29]: the logP came to 2.56.

On to `Cc1nn(C)c(F)c1C(=S)N(C1CC1)C(C)c1ncc(Cl)cc1Cl` (stereo not shown) [Example 30], for which the log partition coefficient (logP) is 3.9.

In turn, `CC(c1ncc(Cl)cc1Cl)N(C(=O)c1cn(C)nc1C(F)F)C1CC1` (stereo not shown) [Example 31] displayed a logP of 3.01.

In the case of `CC(c1ncc(Cl)cc1Cl)N(C(=S)c1cn(C)nc1C(F)F)C1CC1` (stereo not shown) [Example 32], the log partition coefficient (logP) was found to be 4.01.

`CCc1nn(C)c(F)c1C(=O)N(C1CC1)C(C)c1ncc(Cl)cc1Cl` (stereo not shown) [Example 33] yielded a logP of 3.23.

On to `COc1nn(C)cc1C(=O)N(Cc1ncc(Cl)cc1Cl)C1CC1` [Example 34], for which the logP came out at 2.21.

For the compound `Cc1nn(C)c(F)c1C(=O)N(Cc1ccc(Oc2ccccc2)nc1)C1CC1` [Example 35], the lipophilicity (logP) was found to be 2.39.

`Cn1cc(C(=O)N(Cc2ccc(Oc3ccccc3)nc2)C2CC2)c(C(F)F)n1` [Example 36] had a logP of 2.61.

`CC(c1cnccn1)N(C(=O)c1ccsc1I)C1CC1` (stereo not shown) [Example 37] gave a log partition coefficient (logP) of 2.38.

`CC(c1cnccn1)N(C(=O)c1ccco1)C1CC1` (stereo not shown) [Example 38] registered a lipophilicity (logP) of 1.62.

The compound `Cc1nc(C(=O)N(C2CC2)C(C)c2cnccn2)c(C)o1` (stereo not shown) [Example 39] yielded a logP of 1.55.

Consider `Cc1nn(C)cc1C(=O)N(C1CC1)C(C)c1cnccn1` (stereo not shown) [Example 40], for which the logP amounted to 1.25.

For the compound `Cc1ccoc1C(=O)N(C1CC1)C(C)c1cnccn1` (stereo not shown) [Example 41], the log partition coefficient (logP) amounted to 2.04.

`CC(c1cnccn1)N(C(=O)c1cn(C)nc1C(F)F)C1CC1` (stereo not shown) [Example 42] had a log partition coefficient (logP) of 1.47.

In turn, `CC(c1cnccn1)N(C(=S)c1cn(C)nc1C(F)F)C1CC1` (stereo not shown) [Example 43] returned a log partition coefficient (logP) of 2.05.

Regarding `Cc1ncoc1C(=O)N(C1CC1)C(C)c1cnccn1` (stereo not shown) [Example 44], the log partition coefficient (logP) was found to be 1.37.

With `Cc1cc(C(=O)N(C2CC2)C(C)c2cnccn2)no1` (stereo not shown) [Example 45], the log partition coefficient (logP) is listed as 1.65.

`Cc1cc(C(=O)N(C2CC2)C(C)c2cnccn2)nn1C` (stereo not shown) [Example 46] had a log partition coefficient (logP) of 1.45.

In turn, `Cn1cc(C(=O)N(Cc2ccc(Cl)cn2)C2CC2)c(C(F)(F)F)n1` [Example 48] came in with a lipophilicity (logP) of 2.39.

In turn, `CCOc1nn(C)cc1C(=O)N(Cc1ccc(Cl)cn1)C1CC1` [Example 49] gave a logP of 1.98.

On to `Cc1cc(C(=O)N(Cc2ccc(Cl)cn2)C2CC2)c(C(F)(F)F)o1` [Example 50], for which the logP was 3.36.

`Cc1nc(C(F)(F)F)c(C(=O)N(Cc2ccc(Cl)cn2)C2CC2)s1` [Example 51] had a lipophilicity (logP) of 2.93.

Take `Cc1nc(C(F)F)c(C(=O)N(Cc2ccc(Cl)cn2)C2CC2)s1` [Example 52]: the lipophilicity (logP) came out at 2.54.

Compound `O=C(c1sccc1I)N(Cc1ccc(Cl)cn1)C1CC1` [Example 53] gave a lipophilicity (logP) of 3.17.

As for `Cn1cc(C(=O)N(Cc2ccc(Cl)cn2)C2CC2)c(C(F)F)n1` [Example 54], the log partition coefficient (logP) turned out to be 2.08.

The compound `COc1ccc(CN(C(=O)c2ccsc2I)C2CC2)cn1` [Example 55] showed a logP of 2.75.

The compound `COc1ccc(CN(C(=O)c2ccco2)C2CC2)cn1` [Example 56] had a lipophilicity (logP) of 1.97.

As to `COc1ccc(CN(C(=O)c2nc(C)oc2C)C2CC2)cn1` [Example 57], the logP worked out at 1.89.

Take `COc1ccc(CN(C(=O)c2cn(C)nc2C)C2CC2)cn1` [Example 58]: the logP was determined as 1.53.
